Our source for the EC50 and Emax values is patent US10988523B2, “Modified lipidated Relaxin B chain peptides and their therapeutic use” (Sanofi, priority 2018, dated 2021).

*1 amine or outer side, *2 acyl side, *3 side chain or, on linkers, in order; H or OH if unused. Where a SMILES comes first, the peptide text is derived from it. Side-chain parts run from the residue outwards. [ ]: non-standard residue; d: D form. The star is where a group is joined. Docosanoyl = CCCCCCCCCCCCCCCCCCCCCC(=O)*; γGlu = O=C(O)[C@H](CCC(=O)[*:2])N[*:1]; Stearoyl = CCCCCCCCCCCCCCCCCC(=O)*; Palmitoyl = CCCCCCCCCCCCCCCC(=O)*; αMeK = C[C@](N)(CCCCN)C(=O)O; Nle = CCCC[C@H](N)C(=O)O; AEEA = NCCOCCOCC(=O)O; Aib = CC(C)(N)C(=O)O

For orientation: EC50 means the concentration at which the effect is half-maximal. One may read the Emax as the maximal effect, on the per cent scale that the assay sets.

The target of the test is T1, RXFP1 (Homo sapiens, UniProt Q9HBX9).
T1 construct: OVCAR5 cells expressing endogenous RXFP1; endogenous in cells; host or cells: OVCAR5 cells
T1 sequence (Q9HBX9 1-757): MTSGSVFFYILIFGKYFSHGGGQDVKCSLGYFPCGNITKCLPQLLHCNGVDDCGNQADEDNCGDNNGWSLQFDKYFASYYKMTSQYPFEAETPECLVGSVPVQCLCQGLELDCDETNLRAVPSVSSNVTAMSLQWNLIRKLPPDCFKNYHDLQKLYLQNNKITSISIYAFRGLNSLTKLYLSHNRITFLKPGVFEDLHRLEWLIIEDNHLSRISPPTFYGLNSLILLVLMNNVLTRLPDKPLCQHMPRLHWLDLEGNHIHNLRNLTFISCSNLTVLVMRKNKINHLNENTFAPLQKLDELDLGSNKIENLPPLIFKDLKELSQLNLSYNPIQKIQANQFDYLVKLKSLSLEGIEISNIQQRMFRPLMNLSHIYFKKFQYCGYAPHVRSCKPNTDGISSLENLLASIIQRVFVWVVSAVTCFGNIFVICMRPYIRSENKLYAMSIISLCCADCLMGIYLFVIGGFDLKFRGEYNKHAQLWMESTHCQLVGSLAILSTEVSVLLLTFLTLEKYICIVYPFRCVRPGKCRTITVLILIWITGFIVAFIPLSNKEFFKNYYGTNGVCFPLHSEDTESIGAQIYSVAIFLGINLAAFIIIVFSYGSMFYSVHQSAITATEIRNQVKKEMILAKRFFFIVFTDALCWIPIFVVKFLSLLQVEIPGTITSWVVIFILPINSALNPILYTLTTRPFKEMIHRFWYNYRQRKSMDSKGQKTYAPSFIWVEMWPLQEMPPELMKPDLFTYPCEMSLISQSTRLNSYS
The experiment in a line: OVCAR5 cAMP assay (HTRF), RXFP1 agonist activity. The test is classed as cell-based. Conditions: for EC50: OVCAR5 cells, cAMP HTRF, read-out: EC50 (nM), OVCAR 5 cells (cAMP); for Emax: OVCAR-5, maximal cAMP relative to H2-relaxin maximum (100%), read-out: EMax, OVCAR 5 cells (cAMP). In a few lines: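 OVCAR5 cells (endogenous RXFP1) pretreated 40 min at 37° C with 1 mM IBMX, then exposed to peptides in serum-free medium for 30 min at 37° C. Lysate cAMP read by HTRF; EC50 from variable-slope sigmoidal fit; Emax as % of H2-relaxin maximal cAMP in same run.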
A general note: Cyclic AMP is a second messenger, typically raised through Gs and lowered through Gi signalling.

For the compound `CCCCCCCCCCCCCCCC(=O)N[C@@H](CCC(=O)N[C@@H](CCC(=O)N[C@@H](CCC(=O)N[C@@H](CCC(=O)NCCOCCOCC(=O)NCCOCCOCC(=O)NCCOCCOCC(=O)NCCCC[C@H](NC(=O)[C@H](CCCCNC(C)=O)NC(=O)[C@H](CCCCN)NC(=O)[C@H](CCCNC(=N)N)NC(=O)[C@](C)(CCCCN)NC(=O)[C@H](CO)NC(=O)[C@H](Cc1c[nH]c2ccccc12)NC(=O)[C@@H](NC(=O)[C@H](CO)NC(=O)[C@H](CCCC)NC(=O)CNC(=O)[C@H](CCC(=O)O)NC(=O)C(C)(C)NC(=O)C(C)(C)NC(=O)[C@@H](NC(=O)[C@H](CCCCNC(C)=O)NC(=O)[C@H](C)NC(=O)[C@H](CCCNC(=N)N)NC(=O)[C@@H](NC(=O)[C@H](CCCCN)NC(=O)[C@H](CCC(=O)O)NC(=O)[C@H](CCCNC(=N)N)NC(=O)CNC(=O)[C@H](CCC(=O)O)NC(=O)[C@H](CC(C)C)NC(C)=O)C(C)C)[C@@H](C)CC)[C@@H](C)O)C(N)=O)C(=O)O)C(=O)O)C(=O)O)C(=O)O` [compound 65] (Ac-LEGREKVRAK(Ac)I[Aib][Aib]EG[Nle]STWS[αMeK]RKK(Ac)K([AEEA-AEEA-AEEA-γGlu-γGlu-γGlu-γGlu-Palmitoyl])-NH2), the EC50 came to 0.12 nM and the Emax is 93%.

Turning to `CCCCCCCCCCCCCCCCCC(=O)N[C@@H](CCC(=O)N[C@@H](CCC(=O)N[C@@H](CCC(=O)N[C@@H](CCC(=O)NCCCC[C@H](NC(=O)COCCOCCNC(=O)COCCOCCNC(=O)COCCOCCNC(=O)COCCOCCNC(=O)[C@H](CCCCN)NC(=O)[C@H](CCCCN)NC(=O)[C@H](CCCNC(=N)N)NC(=O)C(C)(C)NC(=O)[C@H](CO)NC(=O)[C@H](Cc1c[nH]c2ccccc12)NC(=O)[C@@H](NC(=O)[C@H](CO)NC(=O)[C@H](CCCC)NC(=O)CNC(=O)[C@H](CCC(=O)O)NC(=O)C(C)(C)NC(=O)C(C)(C)NC(=O)[C@@H](NC(=O)[C@H](CCCCNC(C)=O)NC(=O)[C@H](C)NC(=O)[C@H](CCCNC(=N)N)NC(=O)[C@@H](NC(=O)[C@H](CCCCN)NC(=O)[C@H](CCC(=O)O)NC(=O)[C@H](CCCNC(=N)N)NC(=O)CNC(=O)[C@H](CCC(=O)O)NC(=O)[C@H](CC(C)C)NC(C)=O)C(C)C)[C@@H](C)CC)[C@@H](C)O)C(N)=O)C(=O)O)C(=O)O)C(=O)O)C(=O)O` [compound 15] (Ac-LEGREKVRAK(Ac)I[Aib][Aib]EG[Nle]STWS[Aib]RKK[AEEA][AEEA][AEEA][AEEA]K([γGlu-γGlu-γGlu-γGlu-Stearoyl])-NH2), the EC50 was 0.32 nM and the maximum response (Emax) was determined as 92%.

With `CCCCCCCCCCCCCCCCCC(=O)NCCOCCOCC(=O)NCCOCCOCC(=O)NCCCC[C@H](NC(=O)[C@H](CCCCNC(C)=O)NC(=O)[C@H](CCCCN)NC(=O)[C@H](CCCNC(=N)N)NC(=O)C(C)(C)NC(=O)[C@H](CO)NC(=O)[C@H](Cc1c[nH]c2ccccc12)NC(=O)[C@@H](NC(=O)[C@H](CO)NC(=O)[C@H](CCCC)NC(=O)CNC(=O)[C@H](CCC(=O)O)NC(=O)C(C)(C)NC(=O)C(C)(C)NC(=O)[C@@H](NC(=O)[C@H](CCC(N)=O)NC(=O)[C@H](C)NC(=O)[C@H](CCCNC(=N)N)NC(=O)[C@@H](NC(=O)[C@H](CCCCN)NC(=O)[C@H](CCC(=O)O)NC(=O)[C@H](CCCNC(=N)N)NC(=O)CNC(=O)[C@H](CCC(=O)O)NC(=O)[C@H](CC(C)C)NC(C)=O)C(C)C)[C@@H](C)CC)[C@@H](C)O)C(N)=O` [compound 51] (Ac-LEGREKVRAQI[Aib][Aib]EG[Nle]STWS[Aib]RKK(Ac)K([AEEA-AEEA-Stearoyl])-NH2), the maximum response (Emax) worked out at 100%.

Take `CCCCCCCCCCCCCCCC(=O)N[C@@H](CCC(=O)N[C@@H](CCC(=O)NCCOCCOCC(=O)NCCOCCOCC(=O)NCCCC[C@H](NC(=O)[C@H](CCCCN)NC(=O)[C@H](CCCNC(=N)N)NC(=O)C(C)(C)NC(=O)[C@H](CO)NC(=O)[C@H](Cc1c[nH]c2ccccc12)NC(=O)[C@@H](NC(=O)[C@H](CO)NC(=O)[C@H](CCCC)NC(=O)CNC(=O)[C@H](CCC(=O)O)NC(=O)C(C)(C)NC(=O)C(C)(C)NC(=O)[C@@H](NC(=O)[C@H](C)NC(=O)[C@H](C)NC(=O)[C@H](CCCNC(=N)N)NC(=O)[C@@H](NC(=O)[C@H](CCCCN)NC(=O)[C@H](CCC(=O)O)NC(=O)[C@H](CCCNC(=N)N)NC(=O)CNC(=O)[C@H](CCC(=O)O)NC(=O)[C@H](CC(C)C)NC(=O)[C@H](CCC(=O)O)NC(C)=O)C(C)C)[C@@H](C)CC)[C@@H](C)O)C(N)=O)C(=O)O)C(=O)O` [compound 57] (Ac-ELEGREKVRAAI[Aib][Aib]EG[Nle]STWS[Aib]RKK([AEEA-AEEA-γGlu-γGlu-Palmitoyl])-NH2): the 50% effective concentration (EC50) was determined as 4.4 nM and the Emax was found to be 93%.

As for `CCCCCCCCCCCCCCCC(=O)N[C@@H](CCC(=O)N[C@@H](CCC(=O)N[C@@H](CCC(=O)N[C@@H](CCC(=O)NCCOCCOCC(=O)NCCOCCOCC(=O)NCCOCCOCC(=O)NCCOCCOCC(=O)NCCCC[C@H](NC(=O)[C@H](CCCCNC(C)=O)NC(=O)[C@H](CCCCN)NC(=O)[C@H](CCCNC(=N)N)NC(=O)[C@](C)(CCCCN)NC(=O)[C@H](CO)NC(=O)[C@H](Cc1ccccc1)NC(=O)[C@@H](NC(=O)[C@H](CO)NC(=O)[C@H](CCCC)NC(=O)CNC(=O)[C@H](CCC(=O)O)NC(=O)C(C)(C)NC(=O)C(C)(C)NC(=O)[C@@H](NC(=O)[C@H](CCCCNC(C)=O)NC(=O)[C@H](C)NC(=O)[C@H](CCCNC(=N)N)NC(=O)[C@@H](NC(=O)[C@H](CCCCN)NC(=O)[C@H](CCC(=O)O)NC(=O)[C@H](CCCNC(=N)N)NC(=O)CNC(=O)[C@H](CCC(=O)O)NC(=O)[C@H](CC(C)C)NC(C)=O)C(C)C)[C@@H](C)CC)[C@@H](C)O)C(N)=O)C(=O)O)C(=O)O)C(=O)O)C(=O)O` [compound 140] (Ac-LEGREKVRAK(Ac)I[Aib][Aib]EG[Nle]STFS[αMeK]RKK(Ac)K([AEEA-AEEA-AEEA-AEEA-γGlu-γGlu-γGlu-γGlu-Palmitoyl])-NH2), the EC50 is 0.4 nM and the Emax was found to be 88%.

As to `CCCCCCCCCCCCCCCCCCCCCC(=O)N[C@@H](CCC(=O)N[C@@H](CCC(=O)N[C@@H](CCC(=O)NCCOCCOCC(=O)NCCOCCOCC(=O)NCCOCCOCC(=O)NCCCC[C@H](NC(=O)[C@H](CCCCNC(C)=O)NC(=O)[C@H](CCCCN)NC(=O)[C@H](CCCNC(=N)N)NC(=O)C(C)(C)NC(=O)[C@H](CO)NC(=O)[C@H](Cc1c[nH]c2ccccc12)NC(=O)[C@@H](NC(=O)[C@H](CO)NC(=O)[C@H](CCCC)NC(=O)CNC(=O)[C@H](CCC(=O)O)NC(=O)C(C)(C)NC(=O)C(C)(C)NC(=O)[C@@H](NC(=O)[C@H](CCCCNC(C)=O)NC(=O)[C@H](C)NC(=O)[C@H](CCCNC(=N)N)NC(=O)[C@@H](NC(=O)[C@H](CCCCN)NC(=O)[C@H](CCC(=O)O)NC(=O)[C@H](CCCNC(=N)N)NC(=O)CNC(=O)[C@H](CCC(=O)O)NC(=O)[C@H](CC(C)C)NC(C)=O)C(C)C)[C@@H](C)CC)[C@@H](C)O)C(N)=O)C(=O)O)C(=O)O)C(=O)O` [compound 173] (Ac-LEGREKVRAK(Ac)I[Aib][Aib]EG[Nle]STWS[Aib]RKK(Ac)K([AEEA-AEEA-AEEA-γGlu-γGlu-γGlu-Docosanoyl])-NH2), the EC50 stood at 0.19 nM and the maximal effect (Emax) came to 85%.
